Data from the kinase profiling compilation of Christmann-Franck et al. (2016).

How the values were obtained:
Assay in all cases: KINOMEscan competition binding
Settings in all cases: compound 10.0 µM
[1] = target: PLK1 (human) (UniProt P53350)
[2] = target: CDK17 (human) (UniProt Q00537)
[3] = target: CAMKK2 (human) (UniProt Q96RR4)
[4] = target: LYN (human) (UniProt P07948)
[5] = system: ABL1 (human), P00519 [Y253F]
[6] = target: PHKG1 (human) (UniProt Q16816)
[7] = target: DDR2 (human) (UniProt Q16832)
[8] = target: TEC (human) (UniProt P42680)
[9] = target: STK16 (human) (UniProt O75716)
Chain of STK16 (human) (O75716 whole entry, looked up): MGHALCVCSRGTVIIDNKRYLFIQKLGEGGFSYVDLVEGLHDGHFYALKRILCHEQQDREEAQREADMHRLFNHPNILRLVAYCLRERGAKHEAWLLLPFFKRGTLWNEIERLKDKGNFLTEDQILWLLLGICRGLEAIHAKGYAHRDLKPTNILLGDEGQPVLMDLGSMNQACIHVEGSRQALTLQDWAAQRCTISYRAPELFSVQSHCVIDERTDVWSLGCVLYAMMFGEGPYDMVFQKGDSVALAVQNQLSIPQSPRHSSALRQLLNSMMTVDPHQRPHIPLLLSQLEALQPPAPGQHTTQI

[10] = target: BMPR1A (human) (UniProt P36894)
Chain of BMPR1A (human) (P36894 whole entry, looked up): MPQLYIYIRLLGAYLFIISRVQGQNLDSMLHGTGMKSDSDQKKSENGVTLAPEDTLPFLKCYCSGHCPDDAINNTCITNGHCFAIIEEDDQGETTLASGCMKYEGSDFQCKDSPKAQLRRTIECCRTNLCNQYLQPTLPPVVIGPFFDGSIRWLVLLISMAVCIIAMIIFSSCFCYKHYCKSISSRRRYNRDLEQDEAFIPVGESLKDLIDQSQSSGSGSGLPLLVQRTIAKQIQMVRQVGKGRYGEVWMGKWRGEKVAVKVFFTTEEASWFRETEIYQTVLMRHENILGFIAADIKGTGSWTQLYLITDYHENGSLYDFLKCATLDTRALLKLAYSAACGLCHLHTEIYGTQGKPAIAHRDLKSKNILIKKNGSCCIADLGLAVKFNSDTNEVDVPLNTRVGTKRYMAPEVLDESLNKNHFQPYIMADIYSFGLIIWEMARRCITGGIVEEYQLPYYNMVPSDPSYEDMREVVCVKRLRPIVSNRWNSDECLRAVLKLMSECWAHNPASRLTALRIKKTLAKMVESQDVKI

[11] = target: RPS6KA4 KD2 (human) (UniProt O75676)
[12] = target: MAP2K2 (human) (UniProt P36507)
[13] = target: MARK1 (human) (UniProt Q9P0L2)
[14] = target: TEK (human) (UniProt Q02763)
[15] = target: DYRK1B (human) (UniProt Q9Y463)
[16] = target: MYLK4 (human) (UniProt Q86YV6)
[17] = target: EIF2AK2 (human) (UniProt P19525)
[18] = target: FLT3 (human) (UniProt P36888)
[19] = target: RIOK1 (human) (UniProt Q9BRS2)
Chain of RIOK1 (human) (Q9BRS2 whole entry, looked up): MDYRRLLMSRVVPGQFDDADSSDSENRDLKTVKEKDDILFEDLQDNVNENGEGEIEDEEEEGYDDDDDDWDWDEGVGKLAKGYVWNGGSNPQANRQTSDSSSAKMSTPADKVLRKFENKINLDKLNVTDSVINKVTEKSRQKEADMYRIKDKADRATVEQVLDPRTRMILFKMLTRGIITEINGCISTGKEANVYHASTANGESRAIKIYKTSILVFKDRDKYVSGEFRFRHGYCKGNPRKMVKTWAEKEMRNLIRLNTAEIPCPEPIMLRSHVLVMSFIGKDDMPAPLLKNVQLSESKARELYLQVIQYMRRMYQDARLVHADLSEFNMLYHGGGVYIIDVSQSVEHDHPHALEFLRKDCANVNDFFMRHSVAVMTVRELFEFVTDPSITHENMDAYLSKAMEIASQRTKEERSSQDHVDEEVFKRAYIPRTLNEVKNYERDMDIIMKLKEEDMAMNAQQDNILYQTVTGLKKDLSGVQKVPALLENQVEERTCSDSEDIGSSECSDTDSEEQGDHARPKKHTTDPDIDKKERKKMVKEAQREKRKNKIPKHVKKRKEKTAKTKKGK

[20] = target: MAPKAPK2 (human) (UniProt P49137)
Chain of MAPKAPK2 (human) (P49137 whole entry, looked up): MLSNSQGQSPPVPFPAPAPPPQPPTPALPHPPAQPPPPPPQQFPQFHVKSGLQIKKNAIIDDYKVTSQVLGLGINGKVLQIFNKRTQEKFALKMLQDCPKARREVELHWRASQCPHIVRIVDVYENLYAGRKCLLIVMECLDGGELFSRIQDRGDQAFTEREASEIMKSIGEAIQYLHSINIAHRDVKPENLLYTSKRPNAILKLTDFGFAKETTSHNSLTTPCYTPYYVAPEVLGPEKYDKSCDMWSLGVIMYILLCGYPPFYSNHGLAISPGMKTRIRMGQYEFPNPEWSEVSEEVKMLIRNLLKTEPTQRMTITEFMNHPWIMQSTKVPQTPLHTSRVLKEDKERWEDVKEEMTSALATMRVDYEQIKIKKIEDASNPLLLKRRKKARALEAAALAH

[21] = target: TGFBR2 (human) (UniProt P37173)
Chain of TGFBR2 (human) (P37173 whole entry, looked up): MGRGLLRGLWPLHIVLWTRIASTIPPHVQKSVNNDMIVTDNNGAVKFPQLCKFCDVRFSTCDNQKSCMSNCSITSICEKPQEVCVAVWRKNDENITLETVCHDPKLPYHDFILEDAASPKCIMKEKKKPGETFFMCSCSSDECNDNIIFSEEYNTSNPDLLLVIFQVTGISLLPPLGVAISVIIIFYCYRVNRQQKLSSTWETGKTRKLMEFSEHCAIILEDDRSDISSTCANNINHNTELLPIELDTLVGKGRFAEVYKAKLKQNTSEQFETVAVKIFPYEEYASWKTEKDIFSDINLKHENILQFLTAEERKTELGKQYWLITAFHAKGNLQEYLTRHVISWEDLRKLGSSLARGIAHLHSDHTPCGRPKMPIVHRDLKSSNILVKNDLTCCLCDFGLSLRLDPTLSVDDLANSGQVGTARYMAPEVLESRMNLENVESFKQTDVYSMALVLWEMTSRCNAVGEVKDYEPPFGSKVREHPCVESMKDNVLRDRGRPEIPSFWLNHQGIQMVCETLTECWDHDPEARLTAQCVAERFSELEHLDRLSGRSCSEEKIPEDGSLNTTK

[22] = target: PRKCH (human) (UniProt P24723)
Chain of PRKCH (human) (P24723 whole entry, looked up): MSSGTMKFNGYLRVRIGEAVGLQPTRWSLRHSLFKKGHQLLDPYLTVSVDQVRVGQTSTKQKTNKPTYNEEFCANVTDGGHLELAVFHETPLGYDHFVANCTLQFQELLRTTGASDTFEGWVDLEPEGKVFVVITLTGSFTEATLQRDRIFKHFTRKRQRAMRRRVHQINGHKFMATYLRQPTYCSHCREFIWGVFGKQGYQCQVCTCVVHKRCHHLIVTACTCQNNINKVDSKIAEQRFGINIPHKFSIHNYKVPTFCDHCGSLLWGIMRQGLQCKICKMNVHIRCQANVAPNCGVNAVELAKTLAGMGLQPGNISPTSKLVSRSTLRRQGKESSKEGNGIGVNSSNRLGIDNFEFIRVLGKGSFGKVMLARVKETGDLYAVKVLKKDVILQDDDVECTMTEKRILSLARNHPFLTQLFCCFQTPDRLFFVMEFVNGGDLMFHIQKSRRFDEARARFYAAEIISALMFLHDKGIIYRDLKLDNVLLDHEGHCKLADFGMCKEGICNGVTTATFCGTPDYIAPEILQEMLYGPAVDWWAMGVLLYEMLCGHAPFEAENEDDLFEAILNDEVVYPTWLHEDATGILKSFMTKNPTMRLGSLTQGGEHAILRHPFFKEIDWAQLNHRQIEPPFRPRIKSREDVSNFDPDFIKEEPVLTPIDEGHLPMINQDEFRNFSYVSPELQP

[23] = target: STK36 (human) (UniProt Q9NRP7)
[24] = target: MARK3 (human) (UniProt P27448)
[25] = target: SGK110 (human) (UniProt P0C264)
[26] = target: DMPK (human) (UniProt Q09013)
[27] = target: MAPK1 (human) (UniProt P28482)
Chain of MAPK1 (human) (P28482 whole entry, looked up): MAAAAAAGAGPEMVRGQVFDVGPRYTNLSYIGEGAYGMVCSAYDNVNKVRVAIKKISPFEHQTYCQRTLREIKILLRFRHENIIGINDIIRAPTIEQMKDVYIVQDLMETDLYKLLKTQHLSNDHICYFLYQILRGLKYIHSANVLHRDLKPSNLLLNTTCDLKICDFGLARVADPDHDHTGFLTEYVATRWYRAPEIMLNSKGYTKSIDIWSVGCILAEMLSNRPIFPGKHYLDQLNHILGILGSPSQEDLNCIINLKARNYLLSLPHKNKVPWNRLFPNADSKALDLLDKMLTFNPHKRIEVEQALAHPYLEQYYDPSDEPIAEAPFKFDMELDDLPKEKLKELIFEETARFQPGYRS

[28] = target: ABL2 (human) (UniProt P42684)
[29] = target: TAOK1 (human) (UniProt Q7L7X3)
[30] = target: FRK (human) (UniProt P42685)
[31] = target: MARK4 (human) (UniProt Q96L34)
[32] = target: STK38 (human) (UniProt Q15208)
[33] = target: ICK (human) (UniProt Q9UPZ9)
[34] = target: MAP3K15 (human) (UniProt Q6ZN16)
[35] = target: HUNK (human) (UniProt P57058)
[36] = target: EPHB6 (human) (UniProt O15197)

Chain of CAMKK2 (human) (Q96RR4 whole entry, looked up): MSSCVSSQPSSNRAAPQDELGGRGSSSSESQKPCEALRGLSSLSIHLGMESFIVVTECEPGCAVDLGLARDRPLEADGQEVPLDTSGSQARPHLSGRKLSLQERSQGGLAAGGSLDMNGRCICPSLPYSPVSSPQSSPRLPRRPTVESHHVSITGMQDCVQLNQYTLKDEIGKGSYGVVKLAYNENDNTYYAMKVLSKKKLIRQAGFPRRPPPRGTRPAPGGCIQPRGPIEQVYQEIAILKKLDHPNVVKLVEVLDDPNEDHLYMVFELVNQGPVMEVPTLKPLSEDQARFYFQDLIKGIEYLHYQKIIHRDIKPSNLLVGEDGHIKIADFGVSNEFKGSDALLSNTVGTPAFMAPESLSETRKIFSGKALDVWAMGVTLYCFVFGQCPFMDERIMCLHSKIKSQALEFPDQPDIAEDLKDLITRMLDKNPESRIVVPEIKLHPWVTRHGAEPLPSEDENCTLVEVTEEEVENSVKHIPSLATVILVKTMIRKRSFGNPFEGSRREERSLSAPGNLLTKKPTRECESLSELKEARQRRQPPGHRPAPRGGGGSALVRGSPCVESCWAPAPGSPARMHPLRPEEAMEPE
Chain of PLK1 (human) (P53350 whole entry, looked up): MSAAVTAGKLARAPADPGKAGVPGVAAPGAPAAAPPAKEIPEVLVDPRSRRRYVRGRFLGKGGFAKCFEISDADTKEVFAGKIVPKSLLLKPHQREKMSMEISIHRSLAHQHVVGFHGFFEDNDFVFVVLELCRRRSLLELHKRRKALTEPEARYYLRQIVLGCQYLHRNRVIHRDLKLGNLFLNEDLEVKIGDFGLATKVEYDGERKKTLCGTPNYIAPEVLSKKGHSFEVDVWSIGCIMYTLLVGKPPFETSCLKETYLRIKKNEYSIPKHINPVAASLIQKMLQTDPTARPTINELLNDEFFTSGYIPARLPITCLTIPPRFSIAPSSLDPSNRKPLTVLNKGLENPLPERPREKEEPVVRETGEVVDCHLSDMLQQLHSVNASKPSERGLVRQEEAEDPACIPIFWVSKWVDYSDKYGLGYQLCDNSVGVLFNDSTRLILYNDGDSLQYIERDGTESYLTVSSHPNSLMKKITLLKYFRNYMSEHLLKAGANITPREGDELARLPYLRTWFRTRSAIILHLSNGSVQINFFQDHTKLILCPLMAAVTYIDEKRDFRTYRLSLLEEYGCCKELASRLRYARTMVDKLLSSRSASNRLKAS
Chain of PHKG1 (human) (Q16816 whole entry, looked up): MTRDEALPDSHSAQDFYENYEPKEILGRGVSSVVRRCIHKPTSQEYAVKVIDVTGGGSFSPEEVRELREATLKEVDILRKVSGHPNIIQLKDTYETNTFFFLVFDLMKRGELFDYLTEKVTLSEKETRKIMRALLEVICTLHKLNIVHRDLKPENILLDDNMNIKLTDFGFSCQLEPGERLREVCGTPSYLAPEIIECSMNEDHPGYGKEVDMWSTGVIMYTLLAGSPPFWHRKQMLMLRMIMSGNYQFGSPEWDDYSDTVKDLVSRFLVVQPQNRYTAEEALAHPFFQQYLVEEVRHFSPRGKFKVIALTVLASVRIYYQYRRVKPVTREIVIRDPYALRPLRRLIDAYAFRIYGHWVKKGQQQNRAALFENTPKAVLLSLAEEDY

| SMILES | kinase still bound, per cent of control [1] [%] | kinase still bound, per cent of control [2] [%] | kinase still bound, per cent of control [3] [%] | kinase still bound, per cent of control [4] [%] | kinase still bound, per cent of control [5] [%] | kinase still bound, per cent of control [6] [%] | kinase still bound, per cent of control [7] [%] | kinase still bound, per cent of control [8] [%] | kinase still bound, per cent of control [9] [%] | kinase still bound, per cent of control [11] [%] | kinase still bound, per cent of control [12] [%] | kinase still bound, per cent of control [13] [%] | kinase still bound, per cent of control [14] [%] | kinase still bound, per cent of control [15] [%] | kinase still bound, per cent of control [16] [%] | kinase still bound, per cent of control [17] [%] | kinase still bound, per cent of control [18] [%] | kinase still bound, per cent of control [19] [%] | kinase still bound, per cent of control [20] [%] | kinase still bound, per cent of control [21] [%] | other results |
| --- | --- | --- | --- | --- | --- | --- | --- | --- | --- | --- | --- | --- | --- | --- | --- | --- | --- | --- | --- | --- | --- |
| Cc1n[nH]c2ccc(-c3cncc(OC[C@@H](N)Cc4c[nH]c5ccccc45)c3)cc12 | 100 | 25 | 2 | 100 | 100 | 8 | 100 | 100 | 100 | 9.9 | 100 | 100 | 100 | 0 | 3 | 100 | 4.5 | 2.8 | 100 | 100 | kinase still bound, per cent of control [10]: 100%; kinase still bound, per cent of control [22]: 1.4%; kinase still bound, per cent of control [23]: 100%; kinase still bound, per cent of control [24]: 9.4%; kinase still bound, per cent of control [25]: 100%; kinase still bound, per cent of control [26]: 0.8%; kinase still bound, per cent of control [27]: 100%; kinase still bound, per cent of control [28]: 100%; kinase still bound, per cent of control [29]: 0.05%; kinase still bound, per cent of control [30]: 100%; kinase still bound, per cent of control [31]: 100% |
| CCN(CC)CCCCNc1ncc2cc(-c3cc(OC)cc(OC)c3)c(NC(=O)NC(C)(C)C)nc2n1 | 100 | 100 | 100 | 100 | 100 | 100 | 100 | 100 | 100 | 100 | 100 | 100 | 100 | 100 | 100 | 24 | 100 | 100 | 100 | 100 | kinase still bound, per cent of control [22]: 100%; kinase still bound, per cent of control [23]: 100%; kinase still bound, per cent of control [24]: 100%; kinase still bound, per cent of control [26]: 100%; kinase still bound, per cent of control [27]: 100%; kinase still bound, per cent of control [28]: 100%; kinase still bound, per cent of control [30]: 100%; kinase still bound, per cent of control [31]: 100% |

Continued, in another order:

| kinase still bound, per cent of control [1] [%] | kinase still bound, per cent of control [2] [%] | kinase still bound, per cent of control [3] [%] | kinase still bound, per cent of control [4] [%] | kinase still bound, per cent of control [5] [%] | kinase still bound, per cent of control [6] [%] | kinase still bound, per cent of control [7] [%] | kinase still bound, per cent of control [8] [%] | kinase still bound, per cent of control [9] [%] | kinase still bound, per cent of control [11] [%] | kinase still bound, per cent of control [12] [%] | kinase still bound, per cent of control [13] [%] | kinase still bound, per cent of control [14] [%] | kinase still bound, per cent of control [15] [%] | kinase still bound, per cent of control [16] [%] | kinase still bound, per cent of control [17] [%] | kinase still bound, per cent of control [18] [%] | kinase still bound, per cent of control [19] [%] | kinase still bound, per cent of control [20] [%] | kinase still bound, per cent of control [21] [%] | SMILES | other results |
| --- | --- | --- | --- | --- | --- | --- | --- | --- | --- | --- | --- | --- | --- | --- | --- | --- | --- | --- | --- | --- | --- |
| 19 | 100 | 100 | 22 | 12 | 100 | 100 | 2.6 | 2.8 | 100 | 5.2 | 26 | 1.8 | 8.8 | 100 | 100 | 2.4 | 2 | 100 | 100 | CNC(=O)c1ccc(Nc2cc(Nc3ccccc3S(=O)(=O)C(C)C)c3cc[nH]c3n2)nc1 | kinase still bound, per cent of control [10]: 100%; kinase still bound, per cent of control [22]: 100%; kinase still bound, per cent of control [23]: 100%; kinase still bound, per cent of control [24]: 13%; kinase still bound, per cent of control [25]: 7.4%; kinase still bound, per cent of control [26]: 10%; kinase still bound, per cent of control [27]: 22%; kinase still bound, per cent of control [28]: 9.4%; kinase still bound, per cent of control [29]: 0.65%; kinase still bound, per cent of control [30]: 33%; kinase still bound, per cent of control [31]: 4% |
| 100 | 100 | 100 | 5 | 13 | 100 | 100 | 7.2 | 100 | 100 | 100 | 100 | 0.95 | 100 | 100 | 100 | 6 | 100 | 100 | 100 | C=CC(=O)Nc1ccc(CN(C(=O)Nc2c(Cl)c(OC)cc(OC)c2Cl)c2cc(Nc3ccc(N4CCN(C)CC4)cc3)ncn2)cc1 | kinase still bound, per cent of control [10]: 100%; kinase still bound, per cent of control [22]: 100%; kinase still bound, per cent of control [23]: 100%; kinase still bound, per cent of control [24]: 100%; kinase still bound, per cent of control [25]: 100%; kinase still bound, per cent of control [26]: 100%; kinase still bound, per cent of control [27]: 100%; kinase still bound, per cent of control [28]: 9.1%; kinase still bound, per cent of control [29]: 0.8%; kinase still bound, per cent of control [30]: 0.65%; kinase still bound, per cent of control [31]: 100% |
| 100 | 100 | 100 | 100 | 100 | 100 | 100 | 100 | 100 | 100 | 100 | 100 | 100 | 100 | 100 | 100 | 100 | 100 | 100 | 100 | CS(=O)(=O)N1CCN(Cc2cc3nc(-c4cccc5[nH]ncc45)nc(N4CCOCC4)c3s2)CC1 | kinase still bound, per cent of control [10]: 100%; kinase still bound, per cent of control [32]: 100%; kinase still bound, per cent of control [22]: 100%; kinase still bound, per cent of control [23]: 100%; kinase still bound, per cent of control [24]: 100%; kinase still bound, per cent of control [33]: 100%; kinase still bound, per cent of control [25]: 100%; kinase still bound, per cent of control [34]: 100%; kinase still bound, per cent of control [35]: 100%; kinase still bound, per cent of control [26]: 100%; kinase still bound, per cent of control [27]: 100%; kinase still bound, per cent of control [28]: 100%; kinase still bound, per cent of control [29]: 100%; kinase still bound, per cent of control [30]: 100%; kinase still bound, per cent of control [36]: 100%; kinase still bound, per cent of control [31]: 100% |
